Measured values reported in patent publication US6683090B1 (priority 1999, dated 2004).
pKd: −log10 of the molar value.

Target: α7 nAChR subtype (Rattus norvegicus, UniProt Q05941)
Type: binding
Details: read-out: KD of radioligand

α7 nAChR subtype, sequence (Q05941 23-502 limits assumed): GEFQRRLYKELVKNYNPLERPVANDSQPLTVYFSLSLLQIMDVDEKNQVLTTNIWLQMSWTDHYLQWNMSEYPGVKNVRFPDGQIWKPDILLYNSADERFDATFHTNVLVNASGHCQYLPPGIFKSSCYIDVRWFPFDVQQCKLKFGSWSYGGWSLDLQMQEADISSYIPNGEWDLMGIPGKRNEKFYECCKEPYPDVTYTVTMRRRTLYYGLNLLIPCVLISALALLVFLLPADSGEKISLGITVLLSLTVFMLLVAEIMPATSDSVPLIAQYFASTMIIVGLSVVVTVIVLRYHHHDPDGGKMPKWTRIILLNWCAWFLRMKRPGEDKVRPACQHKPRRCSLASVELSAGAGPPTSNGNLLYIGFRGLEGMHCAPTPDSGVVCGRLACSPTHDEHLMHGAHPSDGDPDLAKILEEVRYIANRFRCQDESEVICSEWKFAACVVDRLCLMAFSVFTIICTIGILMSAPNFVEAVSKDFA

Substance: 125I-α-Bungarotoxin [^125I-α-BTX]
- pKd: 8.78
